Where no end group is shown, it is not given here.
Experiment: Peptide quantification by mass spectrometry after incubation in cell-free supernatant of Rhodanobacter R179
Type: in vitro ADME
Details: axenic XVM2 medium, 1h, 1 µM AtPep1, NHS-acetate modified, LC-MS [M+2H]
Description: Elicitors were also supplemented into the medium prior to solidification at a final concentration of 1 µM. The flg22 ([…]) and AtPep1 ([…]) peptides were synthesized by EZbiolab. elf18^R179 (Ac-[…]) and elf18 (Ac-[…]) were synthesized by GenScript and EZbiolab, respectively. For inoculation with the bacterial supernatant, bacteria were cultivated overnight in XVM2 minimal medium (20 mM NaCl, 10 mM (NH4)2SO4, 5 mM MgSO4, 1 mM CaCl2, 0.16 mM KH2PO4, 0.32 mM K2HPO4, 0.01 mM FeSO4, 10 mM fructose, 10 mM sucrose, 0.03% Casamino acids, pH 6.7)[76] to a final concentration of OD600 = 0.4. Bacteria were pelleted by centrifugation (11,600 g, 2 min), and the supernatant was sterile-filtered using filter units with MF-Millipore membrane (0.22 µm; Millex). The supernatant was incubated in boiling water for 30 min for heat treatment. Then, 25 ml of 1× MS with 20 g l^−1 Bacto Agar was mixed with 25 ml of supernatant prior to medium solidification and poured into square petri dishes. Sterilized seeds were placed on solidified agar in square petri dishes and vertically incubated for 14 days.
Bacterial supernatants were prepared as described in ‘Agar-based cultivation of axenic plants and co-cultivation with bacteria, bacterial supernatants and elicitors’. Here, additionally, the peptides dRGF1 (DYSNPGHHP-Hyp-RHN) and PSY1 (D-Y(SO3H)-[…]-Hyp-Hyp-S) synthesized by Scilight Peptide were incubated for 1 h with 1 µM of peptides in a plant cultivation light chamber (day-light condition; see ‘Plant cultivation conditions’), and the samples were frozen at −20 °C until further processing. For the investigation of AtPep1 degradation, the AtPep1 peptide was first modified by acetylation (six to seven times). To this end, 100-µl aliquots of peptides were treated with 10 µl of NHS acetate solution (1 M NHS acetate in 50% ACN/PBS) and incubated for 30 min with shaking. The reaction was quenched by the addition of 100 µl of 100 mM Tris-HCl (pH 8.5) and incubated for 10 min. For comparison of the non-acetylated peptides with the above-described modified AtPep1 peptides, aliquots of the non-acetylated peptides were processed as described above, but without the modifying NHS reaction. To this end, 100-µl aliquots of the sample were mixed with 100 µl of PBS buffer (137 mM NaCl, 2.7 mM KCl, 10 mM Na2HPO4, 1.8 mM KH2PO4; pH 7.4). The samples were then further diluted with 100 µl of 100 mM Tris-HCl (pH 8.5) and incubated for 10 min. All samples were acidified with 5 µl of TFA and desalted using StageTips with C18 Empore disk membranes (3M)[109]. The samples were dried in a vacuum evaporator and dissolved in 10 µl of 2% ACN (0.1% TFA for analysis).
The samples were analysed using an EASY-nLC 1200 (Thermo Fisher) coupled to a QExactive Plus mass spectrometer (Thermo Fisher). Peptides were separated on 16-cm frit-less silica emitters (New Objective, 75 µm inner diameter), packed in-house with reversed-phase ReproSil-Pur C18 AQ 1.9 µm resin (Dr. Maisch). Peptides were loaded on the column and eluted for 50 min using a segmented linear gradient of 5% to 95% solvent B (0 min, 5% B; 0–5 min, 15% B; 5–35 min, 50% B; 35–45 min, 95% B; 45–50 min, 95% B) (solvent A: 0% ACN, 0.1% FA; solvent B: 80% ACN, 0.1% FA) at a flow rate of 300 nl min^−1. Mass spectra were acquired in data-dependent acquisition mode with a TOP10 method. Mass spectrometry spectra were acquired in the Orbitrap analyser with a mass range of 300–1,500 m/z at a resolution of 70,000 full width at half maximum (FWHM) and a target value of 3 × 10^6 ions. Precursors were selected with an isolation window of 1.3 m/z. Higher-energy collision dissociation (HCD) fragmentation was performed at a normalized collision energy of 25. Tandem mass spectrometry (MS/MS) spectra were acquired with a target value of 5 × 10^5 ions at a resolution of 17,500 FWHM, a maximum injection time of 85 ms and a fixed first mass of 100 m/z. […]

In the case of ATKVKAKQRGKEKVSSGRPGQHN [AtPep1], the “Total_area MS1 of identified AtPep1 cleavage product (acetylated […])” value (replicate 2) is reported as 0.00E+00 and the “Total_area MS1 of identified AtPep1 cleavage product (acetylated […])” value (replicate 3) is reported as 0.00E+00.

Reference: publication PMC11928319 (Nature Plants, 2025)
